In patent publication US9193731B2, “Antimicrobial compounds and methods of making and using the same” (Melinta Therapeutics, Inc., priority 2009, dated 2015):

Tested on: Escherichia coli strain ATCC25922
Assay: standard microdilution assay to determine minimum inhibitory concentrations (MICs)
Assay type: cell-based
Conditions: for E. coli ATCC25922 MIC: Escherichia coli strain ATCC25922, microdilution; for MIC: Escherichia coli, ATCC25922, Escherichia coli strain ATCC25922, microdilution, read-out: E. coli ATCC25922 MIC
In short: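 E. coli strain ATCC25922 tested per CLSI microdilution methodology (about 100 microliters per well) to find minimum inhibitory concentrations. Activity scored categorically at a 16 micrograms/ml threshold.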

SMILES | E. coli ATCC25922 MIC | MIC [µg/mL]
NCCCNCc1ccc(-n2cc3cc(-c4cc(C(=O)N(CCO)CCO)cc(N5CCNCC5)c4)[nH]c3nc2=O)cc1 [Compound 894] | − (a “−” indicates that the compound has an MIC value greater than 16 micrograms/ml) | 
N=C(N)NCCCNCc1ccc(-n2cc3cc(-c4cc(C(=O)N(CCO)CCO)cc(N5CCNCC5)c4)[nH]c3nc2=O)cc1 [Compound 895] | + (a “+” indicates that the compound has an MIC value of 16 micrograms/ml or less) | 
N=C(N)NCCCNCc1ccc(-n2cc3cc(-c4ccc(S(=O)(=O)N(CCCc5c[nH]nc5C(F)(F)F)C5CCNCC5)cc4)[nH]c3nc2=O)cc1 [Compound 897] | + (a “+” indicates that the compound has an MIC value of 16 micrograms/ml or less) | 
N=C(N)NCCCNCc1ccc(-n2cc3cc(-c4ccc(S(=O)(=O)N(Cc5ccc(Cl)c(Cl)c5)C5CCOCC5)cc4)[nH]c3nc2=O)cc1 [Compound 898] | − (a “−” indicates that the compound has an MIC value greater than 16 micrograms/ml) | 
CN1CCN(CCCN(C2CCNCC2)S(=O)(=O)c2ccc(-c3cc4cn(-c5ccc(CNCCCNC(=N)N)cc5)c(=O)nc4[nH]3)cc2)CC1 [Compound 899] | + (a “+” indicates that the compound has an MIC value of 16 micrograms/ml or less) | 
NCCCCCN1CCN(c2cn3cc(-c4ccc(S(=O)(=O)N5CCNCC5)cc4)[nH]c3nc2=O)CC1 [Compound 900] |  | > 16
N=C(N)NCCCOCc1ccc(-c2cn3cc(-c4ccc(Br)cc4)[nH]c3nc2=O)cc1 [Compound 901] |  | > 16
NCCCOCc1ccc(-c2cn3cc(-c4ccc(Br)cc4)[nH]c3nc2=O)cc1 [Compound 902] |  | > 16
CN(Cc1ccccc1)Cc1cc2cn(-c3ccc(CNCCCN)cc3)c(=O)nc2[nH]1 [Compound 905] |  | > 16
CN(Cc1ccccc1)Cc1cc2cn(-c3ccc(CNCCCNC(=N)N)cc3)c(=O)nc2[nH]1 [Compound 906] |  | > 16
N=C(N)NCCCNCc1ccc(-n2cc3cc(-c4ccc(C[C@H](N)CO)cc4)[nH]c3nc2=O)cc1 [Compound 907] | + (a “+” indicates that the compound has an MIC value of 16 micrograms/ml or less) | 
NCCCNCc1ccc(-n2cc3cc(-c4cc(C(=O)N5CCC(C(N)=O)CC5)cc(N5CCNCC5)c4)[nH]c3nc2=O)cc1 [Compound 910] | − (a “−” indicates that the compound has an MIC value greater than 16 micrograms/ml) | 
N=C(N)NCCCNCc1ccc(-n2cc3cc(-c4cc(C(=O)N5CCC(C(N)=O)CC5)cc(N5CCNCC5)c4)[nH]c3nc2=O)cc1 [Compound 911] | − (a “−” indicates that the compound has an MIC value greater than 16 micrograms/ml) | 
N=C(N)NCCCCCn1cc2cc(-c3ccc(S(=O)(=O)NC4CCNCC4)cc3)oc2nc1=O [Compound 912] |  | > 16
N=C(N)NCCCNCc1ccc(-n2cc3cc(CCS(=O)(=O)N(Cc4ccc(Cl)c(Cl)c4)C4CCNCC4)[nH]c3nc2=O)cc1 [Compound 913] | + (a “+” indicates that the compound has an MIC value of 16 micrograms/ml or less) | 
NCCCNCc1ccc(-n2cc3cc(-c4cc(CN5CCS(=O)(=O)CC5)cc(N5CCNCC5)c4)[nH]c3nc2=O)cc1 [Compound 914] | − (a “−” indicates that the compound has an MIC value greater than 16 micrograms/ml) | 
N=C(N)NCCCNCc1ccc(-n2cc3cc(-c4cc(CN5CCS(=O)(=O)CC5)cc(N5CCNCC5)c4)[nH]c3nc2=O)cc1 [Compound 915] | + (a “+” indicates that the compound has an MIC value of 16 micrograms/ml or less) | 
NCCCNCc1ccc(-n2cc3cc(-c4ccc(C(NC5CCNCC5)C(F)(F)F)cc4)[nH]c3nc2=O)cc1 (stereo not drawn) [Compound 918] | + (a “+” indicates that the compound has an MIC value of 16 micrograms/ml or less) | 
